In patent US9156792B2, “Retinamide and uses thereof” (UNIVERSITY OF MARYLAND, BALTIMORE, priority 2008, dated 2015):

Key:
[1] = system: PC-3 prostate cancer cells; test: MTT assay of PC-3 prostate cancer cell growth (proliferation) inhibition; format: cell-based, human; conditions: PC-3 cells; for GI50: Homo sapiens, 144 h, 6 days of treatment, read-out: GI50 Values (concentrations that cause 50% growth inhibition); for potency (growth inhibition) compared with VN/66-1: side by side with VN/66-1
Protocol: Data are means (SEM<±5%) of at least three independent experiments.
Compounds VNLG/145, VNLG/146, VNLG/147, VNLG/148, VNLG/152 and VNLG/153 were tested and evaluated for their ability to inhibit the growth (proliferation) of PC-3 prostate cancer cells using the MTT [3-(4,5-dimethylthiazol-2-yl)-2,5-diphenyltetrazolium bromide] assay (Gediyal et al. 2005). VN/66-1 of U.S. Pat. No. 7,265,143 was tested side by side for comparison. The GI50 values (concentrations that cause 50% growth inhibition) were determined from dose-response curves. See in FIG. 1 for VNLG/145.
The growth inhibitory experiments with the other compounds gave plots that were similar to FIG. 1.

RARα,β,γ receptors = conditions: compared with ATRA; cited from earlier work

Row | GI50 [1] | SMILES | potency (growth inhibition) compared with VN/66-1 [1] | also measured
1 | 610 ± 110 nM | CC1=C(/C=C/C(C)=C/C=C/C(C)=C/C(=O)Nc2ccc(F)cc2)C(C)(C)CCC1n1ccnc1 (stereo not drawn) [drawing 39] |  | 
2 | 1700 ± 50 nM | CC1=C(/C=C/C(C)=C/C=C/C(C)=C/C(=O)Nc2ccc(O)cc2)C(C)(C)CCC1n1ccnc1 (stereo not drawn) |  | 
3 | 1700 ± 70 nM | CC1=C(/C=C/C(C)=C/C=C/C(C)=C/C(=O)Nc2ccccc2O)C(C)(C)CCC1n1ccnc1 (stereo not drawn) [drawing 37] |  | 
4 | 5620 ± 370 nM | CC1=C(/C=C/C(C)=C/C=C/C(C)=C/C(=O)Nc2ncnc3[nH]cnc23)C(C)(C)CCC1n1ccnc1 (stereo not drawn) |  | 

Continued, molecule first:

Row | SMILES | GI50 [1] | potency (growth inhibition) compared with VN/66-1 [1] | also measured
5 | CC1=C(/C=C/C(C)=C/C=C/C(C)=C/C(=O)Nc2ccccc2)C(C)(C)CCC1n1ccnc1 (stereo not drawn) [VNLG/153] |  | potencies better than VN/66-1 | 
6 | CC1=C(/C=C/C(C)=C/C=C/C(C)=C/C(=O)Nc2ccccc2)C(C)(C)CCC1n1ccnc1 (stereo not drawn) [drawing 40] | 1170 ± 50 nM |  | 
7 | CC1=C(/C=C/C(C)=C/C=C/C(C)=C/C(=O)NC(C)(C)C)C(C)(C)CCC1n1ccnc1 (stereo not drawn) [VNLG/145] |  | potencies similar to VN/66-1 | 
8 | CC1=C(/C=C/C(C)=C/C=C/C(C)=C/C(=O)Nc2cc(C(F)(F)F)ccc2C(F)(F)F)C(C)(C)CCC1n1ccnc1 (stereo not drawn) | 14100 ± 7120 nM |  | 
9 | CC1=C(/C=C/C(C)=C/C=C/C(C)=C/C(=O)NC(C)(C)C)C(C)(C)CCC1n1ccnc1 (stereo not drawn) [drawing 35] | 1860 ± 50 nM |  | 
10 | CC1=C(/C=C/C(C)=C/C=C/C(C)=C/C(=O)O)C(C)(C)CCC1n1ccnc1 (stereo not drawn) [VN/14-1] |  |  | binding and activation of RARα,β,γ receptors (RARα,β,γ receptors): binds and activates the RARα,β,γ receptors, albeit it is significantly less potent than ATRA
11 | CC1=C(/C=C/C(C)=C/C=C/C(C)=C/C(=O)Nc2ccc(F)cc2)C(C)(C)CCC1n1ccnc1 (stereo not drawn) [VNLG/152] |  | potencies better than VN/66-1 | 
12 | CC1=C(/C=C/C(C)=C/C=C/C(C)=C/C(=O)Nc2ccccc2O)C(C)(C)CCC1n1ccnc1 (stereo not drawn) [VNLG/147] |  | potencies similar to VN/66-1 | 
